{
  "source": "patent US20200308548A1",
  "about": "“Amplifying Beta Cell Differentiation with Small Molecules BET (Bromodomain And Extraterminal Family Of Bromodomain-Containing Proteins) Inhibitors” (Centre National de la Recherche Scientifique (CNRS), priority 2016, published 2020)",
  "key": {"[1]": {"tested_on": "hiPSC-derived endocrine progenitor cells", "assay": "Percentage of Neurogenin 3 protein expressing cells by flow cytometry", "type": "cell-based, human", "conditions": "three days; 400 nM (+)-JQ1 or 2000 nM IBET-151; three biological experiments", "description": "(§1) Human induced pluripotent stem cells (iPSC) and human embryonic stem cells (ESC) were cultured on standard tissue culture plastic ware coated with hESC-qualified matrigel in mTeSR1™medium. Cells were passaged every three to four days as single cells using TrypLe Select. Rock inhibitor (5 μM) was included at the first day of passaging. Three different iPSC lines derived from a total of two individual donors and one ESC line were applied.\n(§2) For differentiation, cells were seeded as single cells in mTeSR1 with 5 μM Rock inhibitor into tissue culture plates (Corning CellBind) at densities ranging between 300-400.000 cells/cm^2. Cells were cultured for 24 h at 37° C., 5% CO2. Following incubation, medium was aspirated and the cells were washed once in PBS before adding the differentiation medium. Differentiation was carried out essentially as described in Rezania et al. (Rezania et al., 2014b). The differentiation protocol is outlined in FIG. 2A. […]\n(§3) Differentiation efficiency was analyzed by flow cytometry essentially as described in van de Bunt et al., 2016. […] Unconjugated antibodies were detected with fluorophore conjugated secondary antibodies."}, "[2]": {"tested_on": "hiPSC-derived endocrine progenitor cells", "assay": "Neurogenin 3 protein by immunofluorescence microscopy", "type": "cell-based, human", "conditions": "three days; 500 nM (+)-JQ1 or 2000 nM IBET-151; vs DMSO", "description": "as §1, §2"}, "[3]": {"tested_on": "genetically modified hESC line that express GFP under the control of the Neurogenin 3 promoter", "assay": "GFP reporter under Neurogenin 3 promoter in differentiated hESC line", "type": "cell-based, human", "conditions": "three days; 400 nM (+)-JQ1 or 2000 nM IBET-151; vs DMSO", "description": "as §1, §2, §3"}, "[4]": {"tested_on": "mouse embryonic pancreatic buds", "assay": "NGN3 immunohistochemistry and count of positive nuclei in cultured mouse pancreatic buds", "type": "cell-based", "conditions": "five days culture; 0.5 μM IBET-151 or 0.1 μM (+)-JQ1; vs DMSO", "description": "(§4) Mouse pancreatic buds were dissected from E11.5 C57Bl6/J embryos and placed at the air/medium interface on 0.45μm filters in culture dishes containing RPMI medium supplemented with 10% fetal calf serum, 1% penicillin-streptomycin, 1% non-essential amino acids and 10mM HEPES. Pancreatic buds were cultured at 37° C. with 5% CO2.\n(§5) IBET-151 was obtained from Sigma-Aldrich and (+)/-JQ1 from Abcam. Stock solutions were prepared in DMSO. Inhibitors or DMSO (0.1% final concentration) were added to the culture medium which was changed daily.\nPancreatic buds were fixed in 3.7% formaldehyde, pre-embedded in agarose gel (4% of type VII low gelling temperature agarose (Sigma-Aldrich)) and embedded in paraffin. Sections (4 μm thick) were collected and processed for 3,3' diaminobenzidine immunohistological staining of NGN3, as previously described (Attali et al., 2007).\nPhotographs representative of a whole pancreas were taken using a transmitted light microscope (Leitz DMRB, Leica) and digitized using a Hammamatsu cooled 3CCCD camera. Total number of NGN3 positive nuclei per rudiment were then manually counted. Values represent the average of three experiments with standard deviation error bars. Statistical analysis was performed using unpaired Student t test."}, "[5]": {"tested_on": "hiPSC-derived pancreatic progenitors", "assay": "Viability and cell number by Nucleocounter after BET inhibitor treatment", "type": "cell-based, human", "conditions": "three day treatment, all tested concentrations, vs concentration matched DMSO", "description": "as §1, §2\nViability of the cells and total number of cells was analyzed using a Nucleocounter NC3000 Cell analyzer (Chemometec)."}, "[6]": {"tested_on": "mouse embryonic pancreatic buds", "assay": "RT-qPCR of Ngn3, Ins1, Ins2 and MafA in cultured mouse pancreatic buds", "type": "cell-based", "conditions": "for Ngn3 relative mRNA levels: 0.5 μM IBET-151 or 0.1 μM (+)-JQ1, vs DMSO", "description": "as §4, §5\nTotal RNA from three or more pancreatic buds was extracted using Qiagen RNA extraction microkit and 250ng were reverse transcribed using maxima first strand cDNA synthesis kit from Thermo Fisher. Real-time PCR analysis of Ngn3, MafA and Cyclophylin A were performed in 1× Sybr Green Powermix in QuantStudio 3 Applied Biosystem system. Real-time PCR analysis of Ins1 and Ins2 were performed in 1× TaqMan Gene Expression Mastermix in a QuantStudio 3 Applied Biosystem system. Relative expression of Ngn3, MafA and Cyclophylin A were calculated using the comparative method of relative quantification (2^−ΔΔCT) normalized to cyclophilin A expression. Values represent the average of three experiments with standard deviation error bars. Statistical analysis was performed using unpaired Student t test."}, "[7]": {"tested_on": "hiPSC-derived pancreatic progenitors", "assay": "Neurogenin 3 mRNA by qPCR in hiPSC-derived pancreatic progenitors differentiated towards endocrine lineage", "type": "cell-based, human", "conditions": "three days, six different concentrations", "description": "as §1\nas §2, with “medium.” for “medium. Differentiation was carried out essentially as described in Rezania et al. (Rezania et al., 2014b). The differentiation protocol is outlined in FIG. 2A.”\nRNA was isolated from cells using NucleoSpin RNA/protein isolation kit (Macherey-Nagel). RNA was quantified using a nanodrop and […] RNA pr. sample was converted to cDNA using iScript reverse transcription kit (Bio-Rad). Gene expression was evaluated using Tagman gene expression assay for Neurogenin 3(Hs01875204, Applied Biosystems).\nNeurogenin 3 transcripts were normalized to the average expression of two housekeeping genes (ACTB, Hs01060665_g1 and HPRT1, Hs99999909_m1, both from Applied Biosystems). Relative expression was calculated using the ΔΔCt method (FIGS. 2B and 2C)."}, "[8]": {"conditions": "5 days with inhibitor (0.5 μM IBET-151 or 0.1 μM (+)-JQ1), then 9 additional days without inhibitor"}},
  "data": [
    {"molecule": "COc1cc2c(cc1-c1c(C)noc1C)ncc1[nH]c(=O)n([C@H](C)c3ccccn3)c12", "note": "[IBET-151]", "values": [
      {"measurement": "number of cells expressing Neurogenin 3 protein relative to control treated cells", "setting": "[1]", "value": "approximately 1.6 fold"},
      {"measurement": "number of cells positive for Neurogenin 3 protein", "setting": "[2]", "value": "clear increase"},
      {"measurement": "staining intensity of Neurogenin 3 in individual cells", "setting": "[2]", "value": "stronger"},
      {"measurement": "cells expressing GFP compared to the control", "setting": "[3]", "value": "more cells expressing GFP"},
      {"measurement": "number of NGN3 positive nuclei", "setting": "[4]", "value": "increased"},
      {"measurement": "cell number compared to controls", "setting": "[5]", "value": "No obvious difference"},
      {"measurement": "viability compared to controls", "setting": "[5]", "value": "No obvious difference"},
      {"measurement": "Ins1 expression increase", "setting": "[6]; [8]", "value": 3, "unit": "fold"},
      {"measurement": "Ins2 expression increase", "setting": "[6]; [8]", "value": 3, "unit": "fold"},
      {"measurement": "MafA expression increase", "setting": "[6]; [8]", "value": 10, "unit": "folds"},
      {"measurement": "Ngn3 relative mRNA levels", "setting": "[6]; after 3 days of treatment", "value": "strongly increased"},
      {"measurement": "Ngn3 relative mRNA levels", "setting": "[6]; after 7 days", "value": "remain increased"},
      {"measurement": "Neurogenin 3 mRNA expression", "setting": "[7]", "value": "dose-dependent increase"},
      {"measurement": "concentration at which maximum Neurogenin 3 mRNA expression is achieved", "setting": "[7]", "value": 2000, "unit": "nM"}
    ]}
  ]
}
